Measured values as given in patent US6506751B1, “Thiazolidinone compounds useful as chemokine inhibitors” (Millennium Pharmaceuticals, Inc., priority 1999, dated 2003).

Columns and labels:
CCR-5 receptor = target: T1, CCR-5 receptor (Homo sapiens, UniProt P51681); assay: 125I-gp120/sCD4/CCR-5 binding assay (CCR-5 receptor binding assay); conditions: for IC50: block of 125I-gp120 (HIV-1 JR-FL)/sCD4 binding to membranes from CCR-5/L 1.2 cells; for inhibition at 10 µM / % Inhib. @ 10 μM: 10 μM compound, 125I-gp120/sCD4 binding to membranes from CCR-5/L 1.2 cells; for inhibition at 10 µM: read-out: % Inhib. @ 10 μM
T1 construct: membranes prepared from CCR-5/L 1.2 cells; expressed in transfected cells; host or cells: L1.2 cells (CCR-5/L 1.2), membrane preparation
T1 sequence (P51681 whole entry): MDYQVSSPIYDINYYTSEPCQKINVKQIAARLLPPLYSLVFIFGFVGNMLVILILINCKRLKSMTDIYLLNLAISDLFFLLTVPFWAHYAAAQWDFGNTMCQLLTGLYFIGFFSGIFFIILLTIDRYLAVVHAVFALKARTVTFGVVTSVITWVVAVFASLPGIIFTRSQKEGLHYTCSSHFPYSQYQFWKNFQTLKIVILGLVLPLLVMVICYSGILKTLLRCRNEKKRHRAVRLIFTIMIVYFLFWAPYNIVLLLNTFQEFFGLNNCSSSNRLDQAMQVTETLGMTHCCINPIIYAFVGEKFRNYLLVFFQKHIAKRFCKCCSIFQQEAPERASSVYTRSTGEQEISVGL
Description: The ^125I-gp120/sCD4/CCR-5 binding assay is carried out similarly as described in Wu et al., Nature, 1996;384:179-183. Briefly, the envelope gp120 protein derived from HIV-1 JR-FL (Trkola et al., Nature, 1996;384:184-186), a M-tropic strain, is iodinated using solid phase lactoperoxidase to a specific activity of 20 μCi/μg. For each binding reaction (in a final volume of 100 μL binding buffer [50 mM HEPES, pH 7.5, 1 mM CaCl2, 5 mM MgCl2, and 0.5% BSA]), 25 μL (2.5 μg) of membranes prepared from CCR-5/L 1.2 cells are mixed with 25 μL (3 nM) sCD4, followed by 25 μL (0.1 nM) radiolabeled gp120 in the presence or absence of 25 μL compound dissolved in DMSO (final concentration of DMSO 0.5%). The reactions are incubated at room temperature for 45 to 60 minutes and stopped by transferring the mixture to GFB filter plates, which are then washed 3 to 4 times with binding buffer containing 0.5 M NaCl. The plates are dried and MicroScint scintillation fluid is added before counting.

Row | SMILES | IC50 (CCR-5 receptor) | melting point | inhibition at 10 µM (CCR-5 receptor) | % Inhib. @ 10 μM (CCR-5 receptor)
1 | O=C1/C(=C\c2cccc(F)c2)SC(c2cccc(F)c2)N1CCCN1CCOCC1 (centres unmarked) [Compound 1, 5-(3-Fluorobenzylidene)-2-(3-fluorophenyl)-3-(3-morpholin-4-ylpropyl)-thiazolidin-4-one] | 10800 nM | 149 to 150 °C |  | 
2 | O=C1/C(=C\c2cccc(Cl)c2)SC(c2cccc(Cl)c2)N1CCCN1CCCCC1 (centres unmarked) [Compound 2, 5-(3-Chlorobenzylidene)-2-(3-chlorophenyl)-3-(3-piperidin-1-yl-propyl)-thiazolidin-4-one] | 250 nM | 137 to 139 °C |  | 
3 | O=C1/C(=C\c2cccc(F)c2)SC(c2cccc(F)c2)N1CCCN1CCC(N2CCCCC2)CC1 (centres unmarked) [Compound 6, 3-(3-[1,4′]Bipiperidinyl-1′-yl-propyl)-5-(3-fluorobenzylidene)-2-(3-fluorophenyl)-thiazolidin-4-one] | 1260 nM | 160 to 162 °C |  | 
4 | O=C1/C(=C\C2CCCCC2)SC(c2cccc(Cl)c2)N1CCCN1CCCCC1 (centres unmarked) [Compound 14, 2-(3-Chlorophenyl)-5-cyclohexylmethylene-3-(3-piperidin-1-yl-propyl)-thiazolidin-4-one] | 460 nM | 90 to 91 °C |  | 
5 | CCN(CC)CCSCCCN1C(=O)/C(=C\c2cccc(F)c2)SC1c1cccc(Cl)c1 (centres unmarked) [Compound 15, 2-(3-Chlorophenyl)-3-[3-(2-diethylaminoethylsulfanyl)propyl]-5-(3-fluorobenzylidene)-thiazolidin-4-one] | 12700 nM | 41 to 43 °C |  | 
6 | O=C1CSC(c2cccc(Cl)c2)N1C1CCN(Cc2ccccc2)CC1 (centres unmarked) [Compound 16, 3-(1-Benzylpiperidin-4-yl)-2-(3-chlorophenyl)-thiazolidin-4-one] | 3810 nM | 140 to 141 °C |  | 
7 | O=C1/C(=C\c2cccc(F)c2)SC(c2cccc(Cl)c2)N1C1CCN(Cc2ccccc2)CC1 (centres unmarked) [Compound 19, 3-(1-Benzylpiperidin-4-yl)-2-(3-chlorophenyl)-5-(3-fluorobenzylidene)-thiazolidin-4-one] | 280 nM | 121 to 123 °C |  | 
8 | O=C1/C(=C\c2ccco2)SC(c2cccc(Cl)c2)N1CCCN1CCCCC1 (centres unmarked) [Compound 20, 2-(3-Chlorophenyl)-5-(furan-2-ylmethylene)-3-(3-piperidin-1-yl-propyl)-thiazolidin-4-one] | 170 nM | 156 to 158 °C |  | 
9 | O=C1/C(=C\c2cccc(F)c2)SC(c2cccc(Cl)c2)N1CCCN1CCOCC1 (centres unmarked) [Compound 23, 2-(3-Chlorophenyl)-5-(3-fluorobenzylidene)-3-(3-morpholin-4-yl-propyl)-thiazolidin-4-one] | 1990 nM | 142 to 143 °C |  | 
10 | O=C1C(=Cc2cccc(Cl)c2)SC(c2cccc(C(F)(F)F)c2)N1CCCN1CCN(c2ncccn2)CC1 (centres unmarked) [Compound 45, 5-(3-Chloro-benzylidene)-3-[3-(4-pyrimidin-2-yl-piperazin-1-yl)-propyl]-2-(3-trifluoromethyl-phenyl)-thiazolidin-4-one] |  |  | 57.7% | 
11 | O=C1C(=Cc2cccc(Cl)c2)SC(c2cccc(C(F)(F)F)c2)N1CCCN1CCN(C2CCCCC2)CC1 (centres unmarked) [Compound 46, 5-(3-Chloro-benzylidene)-3-[3-(4-cyclohexyl-piperazin-1-yl)-propyl]-2-(3-rifluoromethyl-phenyl)-thiazolidin-4-one] |  |  |  | 51.1%
12 | O=C1C(=Cc2cccc(Cl)c2)SC(c2cccc(F)c2)N1CCCN1CCN(c2ccccn2)CC1 (centres unmarked) [Compound 47, 5-(3-Chloro-benzylidene)-2-(3-fluoro-phenyl)-3-[3-(4-pyridin-2-yl-piperazin-1-yl)-propyl]-thiazolidin-4-ne] |  |  |  | 75.6%

Next, values leading:

Row | IC50 (CCR-5 receptor) | melting point | inhibition at 10 µM (CCR-5 receptor) | % Inhib. @ 10 μM (CCR-5 receptor) | SMILES
13 |  |  | 84.7% |  | O=C1C(=Cc2cccc(Cl)c2)SC(c2cccc(F)c2)N1CCCN1CCN(c2ncccn2)CC1 (centres unmarked) [Compound 48, 5-(3-Chloro-benzylidene)-2-(3-fluoro-phenyl)-3-[3-(4-pyrimidin-2-yl-piperazin-1-yl)-propyl]-thiazolidin-4-one]
14 |  |  |  | 54.0% | O=C1C(=Cc2cccc(Cl)c2)SC(c2cccc(F)c2)N1CCCN1CCN(C2CCCCC2)CC1 (centres unmarked) [Compound 49, 5-(3-Chloro-henzylidene)-3-[3-(4-cyclohexyl-piperazin-1-yl)-propyl]-2-(3-fluoro-phenyl)-thiazolidin-4-one]
15 |  |  | 77.8% |  | O=C1C(=Cc2cccc(Cl)c2)SC(c2cccc(Cl)c2)N1CCCN1CCN(c2ccccn2)CC1 (centres unmarked) [Compound 50, 5-(3-Chloro-benzylidene)-2-(3-chloro-phenyl)-3-[3-(4-pyridin-2-yl-piperazin-1-yl)-propyl]-thiazolidin-4-one]
16 |  |  | 84% |  | O=C1C(=Cc2cccc(Cl)c2)SC(c2cccc(Cl)c2)N1CCCN1CCN(c2ncccn2)CC1 (centres unmarked) [Compound 51, 5-(3-Chloro-benzylidene)-2-(3-chloro-phenyl)-3-[3-(4-pyrimidin-2-yl-piperazin-1-yl)-propyl]-thiazolidin-4-one]
17 |  |  | 43.7% |  | O=C1C(=Cc2cccc(Cl)c2)SC(c2cccc(Cl)c2)N1CCCN1CCN(C2CCCCC2)CC1 (centres unmarked) [Compound 52, 5-(3-Chloro-benzylidene)-2-(3-chloro-phenyl)-3-[3-(4-cyclohexyl-piperazin-1-yl)-propyl]-thiazolidin-4-one]
